Here are results for 15 compounds from PubChem BioAssay AID328 (DTP/NCI, 2004).

The test system of the test is BDF1 mice, P388 leukemia ip, median survival T/C. Put plainly: NCI In Vivo Anticancer Drug Screen. Data for tumor model P388 Leukemia (intraperitoneal) in B6D2F1 (BDF1) mice. The settings on record: endpoint: median survival time, higher = longer survival. In short, it runs like this:
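Survival ratio, drug arm over vehicle arm, in mice with a transplanted tumour.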

Where [1] appears, read: dose: 6.25 mg/kg/injection, schedule: Q01DX009 (ip), vehicle: saline with Tween-80.
Setting [2] is: dose: 12.5 mg/kg/injection, schedule: Q01DX009 (ip), vehicle: saline with Tween-80.
Setting [3] is: dose: 25.0 mg/kg/injection, schedule: Q01DX009 (ip), vehicle: saline with Tween-80.
Setting [4] is: dose: 50.0 mg/kg/injection, schedule: Q01DX009 (ip), vehicle: saline with Tween-80.
Where [5] appears, read: dose: 100.0 mg/kg/injection, schedule: Q01DX009 (ip), vehicle: saline with Tween-80.
[6] abbreviates: dose: 100.0 mg/kg/injection, schedule: Q04DX003 (ip), vehicle: saline with Tween-80.
[7] abbreviates: dose: 50.0 mg/kg/injection, schedule: Q04DX003 (ip), vehicle: Klucel (hydroxypropylcellulose) (HPC).
[8] abbreviates: dose: 100.0 mg/kg/injection, schedule: Q04DX003 (ip), vehicle: Klucel (hydroxypropylcellulose) (HPC).
Where [9] appears, read: dose: 200.0 mg/kg/injection, schedule: Q04DX003 (ip), vehicle: Klucel (hydroxypropylcellulose) (HPC).

“And” between values parts separate entries of the source, which are not always exact repeats. Identical values can stand only once. Inconclusive results and toxic doses are left out.

As for `CC1(C(Cl)(Cl)Cl)C=CC(=O)C=C1`, the T/C reads like this: under setting [1], 110 % of control; under setting [2], 115 % of control; under setting [3], 98 % of control; under setting [4], 107 % of control.

For the compound `O=S1(=O)CC2(N3CCOCC3)CCCCC21` (centres undefined), the T/C by setting is: under setting [5], 100 % of control; (dose: 200.0 mg/kg/injection, schedule: Q01DX009 (ip), vehicle: saline with Tween-80) 100 % of control; (dose: 400.0 mg/kg/injection, schedule: Q01DX009 (ip), vehicle: saline with Tween-80) 112 % of control.

On to `NNc1c(C(N)=O)c2c(N)ncnc2n1C1OC(CO)C(O)C1O` (centres undefined), for which the T/C (dose: 50.0 mg/kg/injection, schedule: Q04DX003 (ip), vehicle: water) was 171 % of control; the T/C (dose: 100.0 mg/kg/injection, schedule: Q04DX003 (ip), vehicle: water) is 166 % of control; the T/C (dose: 200.0 mg/kg/injection, schedule: Q04DX003 (ip), vehicle: water) is 199 % of control.

With `O=C(CCC[N+](=O)[O-])c1ccccc1`, the T/C (dose: 50.0 mg/kg/injection, schedule: Q01DX005 (ip), vehicle: saline with Tween-80) is 113 % of control; the T/C (dose: 100.0 mg/kg/injection, schedule: Q01DX005 (ip), vehicle: saline with Tween-80) is 113 % of control; the T/C (dose: 200.0 mg/kg/injection, schedule: Q01DX005 (ip), vehicle: saline with Tween-80) is 99 % of control.

On to `CC1=C2C(=C(CBr)OS1(=O)=O)C(=O)c1ccccc12`, for which the T/C was 104 % of control under setting [6]; 104 % of control (dose: 200.0 mg/kg/injection, schedule: Q04DX003 (ip), vehicle: saline with Tween-80); 104 % of control (dose: 400.0 mg/kg/injection, schedule: Q04DX003 (ip), vehicle: saline with Tween-80).

Consider `ON=C1CSSC1`, for which the T/C is, setting by setting: (dose: 0.78 mg/kg/injection, schedule: Q01DX009 (ip), vehicle: saline with Tween-80) 100 % of control; (dose: 0.78 mg/kg/injection, schedule: Q04DX003 (ip), vehicle: saline with Tween-80) 106 % of control; (dose: 1.56 mg/kg/injection, schedule: Q01DX009 (ip), vehicle: saline with Tween-80) 102 % of control; (dose: 1.56 mg/kg/injection, schedule: Q04DX003 (ip), vehicle: saline with Tween-80) 100 % of control; (dose: 3.12 mg/kg/injection, schedule: Q01DX009 (ip), vehicle: saline with Tween-80) 109 % of control; (dose: 3.12 mg/kg/injection, schedule: Q04DX003 (ip), vehicle: saline with Tween-80) 99 % of control and 104 % of control. Further, the T/C under setting [1] is 90 % of control; the T/C (dose: 6.25 mg/kg/injection, schedule: Q04DX003 (ip), vehicle: saline with Tween-80) is 100 % of control and 104 % of control; the T/C under setting [2] is 102 % of control; the T/C (dose: 12.5 mg/kg/injection, schedule: Q04DX003 (ip), vehicle: saline with Tween-80) is 99 % of control and 106 % of control.

For `CC(C)c1ccc(C(=O)C2CC2)cc1`, the T/C (dose: 25.0 mg/kg/injection, schedule: Q04DX003 (ip), vehicle: Klucel (hydroxypropylcellulose) (HPC)) was 100 % of control; the T/C (dose: 50.0 mg/kg/injection, schedule: Q01DX009 (ip), vehicle: Klucel (hydroxypropylcellulose) (HPC)) is 100 % of control; the T/C under setting [7] is 87 % of control; the T/C (dose: 100.0 mg/kg/injection, schedule: Q01DX009 (ip), vehicle: Klucel (hydroxypropylcellulose) (HPC)) is 113 % of control; the T/C under setting [8] was 100 % of control; the T/C (dose: 200.0 mg/kg/injection, schedule: Q01DX009 (ip), vehicle: Klucel (hydroxypropylcellulose) (HPC)) is 113 % of control. Moreover, the T/C under setting [9] is 95 % of control.

`CCN(CC)CCNC(=O)c1ccc(COc2ccccc2)cc1`: the T/C (dose: 50.0 mg/kg/injection, schedule: Q01DX005 (ip), vehicle: saline) was 97 % of control; the T/C (dose: 100.0 mg/kg/injection, schedule: Q01DX005 (ip), vehicle: saline) is 111 % of control; the T/C (dose: 200.0 mg/kg/injection, schedule: Q01DX005 (ip), vehicle: saline) was 97 % of control.

As to `CN(C)c1ccccc1.[C-]#[O+].[C-]#[O+].[C-]#[O+].[Cr]`, the T/C under setting [6] is 91 % of control.

For the compound `C[N+](C)(Cc1ccccc1)/N=C(\[O-])Cc1ccccc1`, the T/C by setting is: (dose: 50.0 mg/kg/injection, schedule: Q01DX001 (ip), vehicle: saline) 109 % of control; (dose: 100.0 mg/kg/injection, schedule: Q01DX001 (ip), vehicle: saline) 104 % of control.

Consider `CC(=O)OC1CC2c3ccccc3C1c1cccc[n+]12` (centres undefined), for which the T/C is 87 % of control (dose: 2.34 mg/kg/injection, schedule: Q01DX009 (ip), vehicle: Klucel (hydroxypropylcellulose) (HPC)); 91 % of control (dose: 4.68 mg/kg/injection, schedule: Q01DX009 (ip), vehicle: Klucel (hydroxypropylcellulose) (HPC)); 91 % of control (dose: 9.37 mg/kg/injection, schedule: Q01DX009 (ip), vehicle: Klucel (hydroxypropylcellulose) (HPC)); 87 % of control (dose: 18.75 mg/kg/injection, schedule: Q01DX009 (ip), vehicle: Klucel (hydroxypropylcellulose) (HPC)).

On to `O=C(NC(=O)c1c(F)cccc1F)Nc1ccc2[nH]ccc2c1`, for which the T/C under setting [3] was 100 % of control, the T/C under setting [4] was 100 % of control and the T/C under setting [5] is 93 % of control.

For `CN=C(NC#N)NCCSCc1nc[nH]c1C`, the T/C is 96 % of control (dose: 12.5 mg/kg/injection, schedule: Q01DX005 (ip), vehicle: Klucel (hydroxypropylcellulose) (HPC)); 92 % of control and 116 % of control (dose: 25.0 mg/kg/injection, schedule: Q01DX005 (ip), vehicle: Klucel (hydroxypropylcellulose) (HPC)); 101 % of control (dose: 50.0 mg/kg/injection, schedule: Q01DX005 (ip), vehicle: Klucel (hydroxypropylcellulose) (HPC)); 93 % of control and 101 % of control (dose: 100.0 mg/kg/injection, schedule: Q01DX005 (ip), vehicle: Klucel (hydroxypropylcellulose) (HPC)); 118 % of control (dose: 200.0 mg/kg/injection, schedule: Q01DX005 (ip), vehicle: Klucel (hydroxypropylcellulose) (HPC)); 95 % of control (dose: 400.0 mg/kg/injection, schedule: Q01DX005 (ip), vehicle: Klucel (hydroxypropylcellulose) (HPC)).

`CC(=O)NN(c1ccccc1)c1ccccc1`: the T/C reads like this: under setting [7], 112 % of control; under setting [8], 91 % of control; under setting [9], 108 % of control.

`C[N+]1(C)C2CC(=O)CC1C1CC12` (centres undefined) (tested in a mixture with another compound): the T/C is 99 % of control (dose: 25.0 mg/kg/injection, schedule: Q01DX009 (ip), vehicle: saline); 106 % of control (dose: 50.0 mg/kg/injection, schedule: Q01DX009 (ip), vehicle: saline); 106 % of control (dose: 100.0 mg/kg/injection, schedule: Q01DX009 (ip), vehicle: saline); 106 % of control (dose: 200.0 mg/kg/injection, schedule: Q01DX009 (ip), vehicle: saline).
